Data set [1] in a line: in vitro. Conditions: human. The protocol: (§1) The HeLa cervical cancer adherent cell line (ATCC: CCL-2) was applied for the evaluation of individual and combined effects of mycotoxins on cell viability. The cells were cultured in DMEM (high glucose, 4500 mg/L) with 10% FBS, penicillin (100 U/mL), and streptomycin (100 μg/mL) in sterile plastic cell culture flasks (75 cm^2; 5% CO2, 37 °C). The cells were trypsinized and plated onto 96-well sterile plastic plates. Stock solutions (each 5000 μM) of ZEN, ZELs, ZAN, and ZALs used in cell experiments were prepared in 96 v/v% ethanol (spectroscopic grade; VWR, Debrecen, Hungary). Stock solutions of AOH (5000 μM or 40 mM) were prepared in spectroscopic grade dimethyl sulfoxide (DMSO; Fluka, Morris Plains, NJ, USA). Mycotoxin stock solutions were stored at −20 °C.
(§2) HeLa cells were treated with ZEN, α/β-ZEL, ZAN, α/β-ZAL, and AOH (0–250 μM) for 24 h. […] The cell viability was evaluated based on the ATP levels/well employing a previously described method without modifications.
(§3) Combined effects were evaluated based on combination indices (CI) determined using the CompuSyn software (ComboSyn Inc., Paramus, NJ, USA) by the median-effect equation of the mass-action law:(1) logfa/fu=m×log(D)−m×log(Dm), where fa and fu are the affected and unaffected fractions of the system, respectively; D represents the dose, Dm denotes the dose necessary for the production of median effect, while m is the sigmoidicity coefficient (m > 1 sigmoidal, m = 1 hyperbolic, m < 1 flat sigmoidal).
(§4) The combined effects of mycotoxins were determined by the CI values calculated based on the following equation [68]:(2) CI=(D)1/(Dx)1+(D)2/(Dx)2, where (Dx)1 and (Dx)2 are the individual doses necessary for the production of x% effect, while (D)1 and (D)2 are the doses of the two compounds that combined evoke the same effect as (Dx)1 alone or (Dx)2 alone, i.e., the targeted x% effect.

Data set [2] deals with HeLa cells. Description: in vitro. Conditions: for Concentration at (and above) which statistically significant (p < 0.01) decrease in cell viability was noticed: 24 h incubation, single compound; for IC50: Homo sapiens, read-out: Dm (IC50), viability of HeLa cells (ATP/well); for Effect of the non-toxic (subtoxic) concentration of the compound on ATP levels of ZEN-exposed cells: co-exposure with toxic concentration of ZEN (20 μM), compared to ZEN-exposed cells, Figure 3A. The protocol:
as §1, §2, §3, §4

In data set [3] the target is T1, hERα (Saccharomyces cerevisiae BLYES strain) (Homo sapiens, UniProt P03372).
T1 construct: expressed in transfected cells; host or cells: Saccharomyces cerevisiae BLYES strain (hERα gene integrated in the chromosome)
T1 sequence (P03372 whole entry): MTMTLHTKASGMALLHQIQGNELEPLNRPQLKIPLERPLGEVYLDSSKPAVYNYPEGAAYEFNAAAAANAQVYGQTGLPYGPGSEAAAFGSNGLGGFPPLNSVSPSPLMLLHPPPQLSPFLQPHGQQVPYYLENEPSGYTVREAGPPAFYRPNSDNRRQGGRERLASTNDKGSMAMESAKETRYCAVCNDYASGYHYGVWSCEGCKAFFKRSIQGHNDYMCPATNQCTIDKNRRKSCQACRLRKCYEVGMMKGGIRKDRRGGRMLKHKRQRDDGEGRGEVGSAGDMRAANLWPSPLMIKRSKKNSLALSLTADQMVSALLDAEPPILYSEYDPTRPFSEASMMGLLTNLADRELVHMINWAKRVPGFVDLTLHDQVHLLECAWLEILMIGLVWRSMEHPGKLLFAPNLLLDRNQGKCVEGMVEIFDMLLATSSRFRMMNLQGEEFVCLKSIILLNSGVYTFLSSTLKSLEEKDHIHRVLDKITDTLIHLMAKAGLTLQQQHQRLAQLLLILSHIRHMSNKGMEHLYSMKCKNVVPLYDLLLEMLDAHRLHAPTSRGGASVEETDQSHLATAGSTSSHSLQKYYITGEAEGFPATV
Description: cell-based. Format: cell-based. Conditions: for CI Value (combination index) / Combined Estrogenic Effect / Combined Estrogenic Effect (grade symbol): + 6.28 × 10^−2 µM ZEN; for Combined estrogenic effect in Figure 5B: + 62.8 ×10^-3 μM ZEN.
Text: The Saccharomyces cerevisiae BLYES strain was applied to examine the estrogenic activity of the compounds tested. This bioluminescent yeast bioreporter harbors the hERα gene on its chromosome, and it has two plasmids with genes responsible for bioluminescence. The pUTK404 plasmid contains luxC, -D, and -E genes from Photorhabdus luminescens and flavin oxidoreductase gene (frp) from Vibrio harveyi. The pUTK407 plasmid contains tandem estrogen responsive elements (EREs) that initiate the transcription of luxA and luxB genes after binding the dimer formed by estrogen receptor—ligand complexes.
S. cerevisiae BLYES strain was grown in 30 mL of yeast growth medium (YMM leu-, ura-) for 18–20 h at 30 °C.
Stock solutions of the compounds tested were prepared in methanol and stored at −20 °C. Estrogen assays were carried out on 96-well (PS, F-bottom) microplates (Greiner Bio-One Hungary Ltd., Mosonmagyaróvár, Hungary). In single compound tests, stock solutions of the compounds were serially diluted with methanol; whereas, in co-exposure experiments, a 20-µL mixture of the solutions was placed into the wells of the microplates. After the evaporation of methanol, yeast culture (200 µL; OD600 of 1.000 ± 0.050) were pipetted into each well. E2 was applied as a positive control, while wells containing only yeast cells and yeast cells with methanol served as negative and solvent controls, respectively. Bioluminescence (cps, counts per second) was measured after 5-h incubation (30 °C) with a VictorX Multilabel Plate Reader (Perkin Elmer Inc., Waltham, MA, USA).
as §3, §4
Zero percent was defined in each measurement as the mean of the methanol control values, and 100% was defined as the mean of all plateau values of single compounds’ concentration—response curves.

Data set [4] relates to hERα. Details: method as in PMID 16194592. The following applies: cited from earlier work.
In data set [5] the test system is hERβ. Further details: method as in PMID 16194592. Conditions: cited from earlier work.
Data set [6] relates to Ishikawa cells. Details: method as in PMID 16194592. Conditions: alkaline phosphatase assay; cited from earlier work.
In data set [7] the test system is estrogen receptors. Further details: method as in PMID 28910742. Conditions: yeast reporters bioassay; cited from earlier work.
The test system of data set [8] is androgen receptors. Further details: method as in PMID 28910742. Conditions: yeast reporters bioassay; cited from earlier work.
Where [9] appears, read: HeLa, 24 h, 10 µM (lower toxic concentration) of the compound + 20 µM ZEN.
[10] abbreviates: HeLa, 24 h, 10 µM of the compound + 20 µM ZEN.
Setting [11] is: HeLa, 24 h, 10 µM of the compound + 20 µM ZEN, CompuSyn.
[12] abbreviates: HeLa, 24 h, 30 µM (higher toxic concentration) of the compound + 20 µM ZEN.
The mark [13] stands for this setting: HeLa, 24 h, 30 µM of the compound + 20 µM ZEN.
Setting [14] is: HeLa, 24 h, 30 µM of the compound + 20 µM ZEN, CompuSyn.
Where [15] appears, read: BLYES, higher concentration (µM): α-ZEL 1.25 × 10^−2, β-ZEL 2.43, ZAN 4.99 × 10^−2, α-ZAL 2.48 × 10^−2, β-ZAL 2.48 × 10^−1, GEN 1.48.
The mark [16] stands for this setting: BLYES, higher estrogenic concentration of the compound (as E22).
[17] abbreviates: BLYES, lower concentration (µM): α-ZEL 6.24 × 10^−3, β-ZEL 1.22, ZAN 2.50 × 10^−2, α-ZAL 1.24 × 10^−2, β-ZAL 1.24 × 10^−1, GEN 7.4 × 10^−1.
[18] abbreviates: BLYES, lower estrogenic concentration of the compound (as E21).
Where [19] appears, read: BLYES, higher estrogenic concentration of the compound (as E20).
[20] abbreviates: BLYES, lower estrogenic concentration of the compound (as E19).

Several values for one entry are separate records, joined by “and”; a condition that tells them apart may be missing. Equal entries are not always repeated. Entries after “also recorded” stand apart in the source; their conditions may differ. Where two headings read alike, the source gives them in different places.

Turning to `Cc1cc(O)cc2oc(=O)c3c(O)cc(O)cc3c12` [AOH, alternariol], the cytotoxicity at 24 h, 10 µM in data set [1] (Decrease in cellular ATP levels (% of control), individual effect, HeLa, 24 h, single compound at 10 μM) amounted to 13.6%. Also, the cytotoxicity at 24 h, 30 µM in data set [1] (Decrease in cellular ATP levels (% of control), individual effect, HeLa, 24 h, single compound at 30 μM) came out at 32.4%. The “Combined cytotoxic effect in Figure 3B” value is “Syn and synergism” in data set [2] (setting [9]); “Syn and synergism” in data set [2] (setting [12]). Moreover, the “Combined Cytotoxic Effect” value in data set [2] (setting [10]) and in data set [2] (setting [13]) was “Synergism (CI < 0.8: synergism)” in each case. Moreover, the figures for the “Combined Cytotoxic Effect (grade symbol)” value in data set [2] (setting [10]) and in data set [2] (setting [13]) were “+ (0.60 < CI < 0.80: +)” and “++ (CI < 0.60: ++)”, respectively. The “CI Value (combination index)” value amounted to 0.73 in data set [2] (setting [11]) and 0.50 in data set [2] (setting [14]). Also, the “Concentration at (and above) which statistically significant (p < 0.01) decrease in cell viability was noticed” value in data set [2] (HeLa) came to 10 µM. Besides, the IC50 in data set [2] (HeLa, 24 h) stood at 33.6 µM. The “Effect of subtoxic (non-estrogenic) concentration of the compound on the estrogenic effect of ZEN” value in data set [3] (BLYES, co-treatment with ZEN (approx. 20% estrogenicity), α-ZEL 1.56 × 10^−3 µM, ZAN 6.24 × 10^−3 µM, AOH up to 48.4 µM, Figure 5A) is recorded as “did not cause any relevant change; also recorded: did not increase the estrogenic effect of ZEN”. Moreover, the “Estrogenic effect in BLYES assay” value in data set [3] (single compound, even at 50 µM) is “did not induce estrogenic effects; also recorded: did not show estrogenicity”. The “Fold lower affinity toward hERα compared to 17β-estradiol (E2)” value in data set [4] was 10,000 fold. Besides, the “Fold lower affinity toward hERβ compared to 17β-estradiol (E2)” value in data set [5] is 2500 fold. Also, the “Fold weaker estrogenic effects vs. E2” value in data set [6] is 10,000 fold. Besides, in data set [7], the “Behaviour at estrogen receptors” value was “weak partial agonist”. In addition, in data set [8], the “Behaviour at androgen receptors” value is given as “full agonist”.

As for `C[C@H]1CCC[C@@H](O)CCCCCc2cc(O)cc(O)c2C(=O)O1` [β-ZAL, β-zearalanol], the cytotoxicity at 10 µM in data set [1] was determined as 9.6%. In addition, the cytotoxicity at 30 µM in data set [1] stood at 28%. Besides, the “CI Value (combination index)” value was 0.51 and 0.72 in data set [2]; 1.56 in data set [3] (setting [15]); 1.19 in data set [3] (setting [17]). For the same compound, the “Combined cytotoxic effect in Figure 3B” value in data set [2] (setting [9]) and in data set [2] (setting [12]) was “Syn” in each case. The “Combined Cytotoxic Effect” value in data set [2] (setting [10]) and in data set [2] (setting [13]) was “Synergism (CI < 0.8: synergism)” each time. Further, the “Combined Cytotoxic Effect (grade symbol)” value is given as “++ (CI < 0.60: ++)” in data set [2] (setting [10]) and “+ (0.60 < CI < 0.80: +)” in data set [2] (setting [13]). Further, the “Effect of the non-toxic (subtoxic) concentration of the compound on ATP levels of ZEN-exposed cells” value in data set [2] (HeLa, 24 h) was “statistically significant (p < 0.01) decreases in ATP levels”. In data set [2] (HeLa), the “Concentration at (and above) which statistically significant (p < 0.01) decrease in cell viability was noticed” value is recorded as 10 µM. Also, the IC50 in data set [2] (HeLa, 24 h) is 64.5 µM. In addition, the EC50 – broadly, the concentration giving half of the maximal effect – in data set [3] stood at 0.18 µM. The “Combined Estrogenic Effect” value in data set [3] (setting [16]) was “Antagonism (CI > 1.2: antagonism)”; in data set [3] (setting [18]), “Additive effect (0.8 < CI < 1.2: additive effect)”. The “Combined Estrogenic Effect (grade symbol)” value is recorded as “-- (CI > 1.40: --)” in data set [3] (setting [16]) and “± (0.80 < CI < 1.20: ±)” in data set [3] (setting [18]). The “Combined estrogenic effect in Figure 5B” value in data set [3] (setting [19]) was “antagonism”; in data set [3] (setting [20]), “additive effect”. Also, the “Concentration at (and above) which statistically significant (p < 0.01) estrogenic effect was observed” value in data set [3] (BLYES, single compound) is 0.03 µM.

With `C[C@H]1CCC[C@@H](O)CCC/C=C/c2cc(O)cc(O)c2C(=O)O1` [β-ZEL, β-zearalenol], the cytotoxicity at 10 µM in data set [1] was 19.7%. Besides, the cytotoxicity at 30 µM in data set [1] turned out to be 33.1%. The “Combined cytotoxic effect in Figure 3B” value in data set [2] (setting [9]) was “Syn”; in data set [2] (setting [12]), “Add”. In addition, the figures for the “Combined Cytotoxic Effect” value in data set [2] (setting [10]) and in data set [2] (setting [13]) were “Synergism (CI < 0.8: synergism)” and “Additive effect (0.8 < CI < 1.2: additive effect)”, respectively. In addition, the “Combined Cytotoxic Effect (grade symbol)” value is “+ (0.60 < CI < 0.80: +)” in data set [2] (setting [10]) and “± (0.80 < CI < 1.20: ±)” in data set [2] (setting [13]). The “CI Value (combination index)” value in data set [2] (setting [11]) is reported as 0.64; in data set [2] (setting [14]) it was 1.07; in data set [3] (setting [15]), 0.95; in data set [3] (setting [17]) it was 0.77. The “Effect of the non-toxic (subtoxic) concentration of the compound on ATP levels of ZEN-exposed cells” value in data set [2] (HeLa, 24 h) is on record as “statistically significant (p < 0.01) decreases in ATP levels”. For the same compound, the “Concentration at (and above) which statistically significant (p < 0.01) decrease in cell viability was noticed” value in data set [2] (HeLa) is on record as 10 µM. For the same compound, in data set [2] (HeLa, 24 h), the IC50 came to 39.4 µM. Further, the concentration for a half-maximal effect (EC50) in data set [3] was 2.4 µM. In addition, the results for the “Combined Estrogenic Effect” value in data set [3] (setting [16]) and in data set [3] (setting [18]) were “Additive effect (0.8 < CI < 1.2: additive effect)” and “Synergism (CI < 0.8: synergism)”, respectively. Further, the figures for the “Combined Estrogenic Effect (grade symbol)” value in data set [3] (setting [16]) and in data set [3] (setting [18]) were “± (0.80 < CI < 1.20: ±)” and “+ (0.60 < CI < 0.80: +)”, respectively. Further, the “Combined estrogenic effect in Figure 5B” value in data set [3] (setting [19]) was “additive effects”; in data set [3] (setting [20]) it was “synergism”. Also, the “Concentration at (and above) which statistically significant (p < 0.01) estrogenic effect was observed” value in data set [3] (BLYES, single compound) amounted to 0.31 µM.

These data come from publication PMC8230625 (International Journal of Molecular Sciences, 2021).
